The numbers were not newly measured in patent US20170281596A1, “PHARMACEUTICAL COMBINATION CONTAINING AN ANALGESIC AGENT AND AN ANTISPASMODIC AGENT” (priority 2014, published 2017), which cites them from elsewhere.

For `O=C(c1ccccc1)c1ccc2n1CCC2C(=O)O` (centres unmarked) [Ketorolac, carboxylic acid-5-Benzoyl-2,3-dihydro-1H-pyrrolisine-1,2-amino-2-hydroxymethyl-1,3-propanediol], the “time at which the plasma concentration level is reached” value (administered every 6 hours) is 24 h. The “urinary elimination of Ketorolac and its metabolites” value (main route of elimination, remainder through feces) was 92%.
